Reference: patent US20150351390A1, “COMPOSITIONS AND METHODS FOR AUXIN-ANALOG CONJUGATION” (PIONEER HI-BRED INTERNATIONAL, INC., priority 2012, published 2015)

Assays:
soybean seedlings = assay: Soybean seedling response to spot infiltrated auxins and conjugates; as to 1st trifoliate leaf curl: key: 0 = no phenotype; +/− = threshold; as to Chlorotic lesion @ app. Pnt: key: 0 = no phenotype; +/− = threshold; format: in vivo; design: 1st trifoliate leaf curl / Epinasty score: key: 0 = no phenotype; +/− = threshold; settings: for 1st trifoliate leaf curl / Chlorotic lesion @ app. Pnt / Epinasty score: spot infiltration; for Plant response phenotype, soybean: result in words
Method: Conjugate forms of auxinic compounds when applied through spot infiltration, a needleless method to introduce exogenous agents into plant cells. Initially, various concentrations of analytical grade (98%+pure) IAA, 2,4-D, and dicamba were prepared as solutions that were applied directly to uni-foliate leaves of 9 day old soybean seedlings by spot infiltration in order to determine the range of auxinic response and severity.
Spot infiltration comprises applying a compound to be tested in composition that is applied to the surface of a plant, for example, to a leaf or other plant structure. For example, a method for testing a plant response to one or more compounds using spot infiltration comprises a) providing a composition comprising one or more compounds to be tested in a container having at least an opening for the compound enter and/or exit, and one or more elements for moving the composition into or out of the container; b) contacting at least one opening of the container with the surface of a plant and moving the composition comprising one or more compounds to at least the surface of the plant. A container and elements for moving the composition may comprise a syringe body and plunger. Moving the composition to the plant surface comprises contacting the surface with pressure sufficient for the composition to enter the cells of the plant. In an aspect, spot filtration testing comprises measuring an effect of the composition on the contacted plant and comparing that measure or effect to a plant that is not contacted with the composition.
Plant response phenotypes were documented at one day post-spot infiltration and subsequently every other day, up to nine days post treatment. […] In the studies described herein below, 5 replicate treatments for each conjugate form were conducted, along with appropriate negative controls.
(§1) Examples 9 and 10 utilized a spot infiltration method for the delivery of an herbicide directly to leaves of a plant. The method generally allows for the directed delivery of a variety of agents to a localized area of a plant, e.g. localized region of leaves, for screening or assessment purposes, e.g. to quickly assess the response of a plant to the agent. As used in the foregoing examples, the spot infiltration method was used to introduce specific herbicides or specific conjugates of the herbicides to seedling plant leaves. Following introduction of the herbicide or the appropriate conjugate, plants were observed daily for nine days for characteristics of epinasty, trifoliate leaf curly, chlorosis, and new growth recovery.
(§2) Briefly, a solution of the desired agent is prepared of the desired agent, e.g. as described above in Example 10, solutions (5% EtOH) of 1, 2.5 and 5 mM IAA. The solution is then drawn into a 1 mL BD™ slip-tip syringe, bulk, non-sterile syringe (e.g. Becton, Dickinson and Company, Product No. 301025) with 100 μL markings. The desired volume is then applied to the leaf, e.g. as described in Examples 9 and 10, with the tip of the syring against the leaf and positive pressure applied to the syringe plunger. Sufficient pressure is applied in order to infuse the area beneath the syringe opening, but not so much pressure as to cause a visible-to-the-eye puncture or hole to form in the leaf. Some run-off of solution around the syringe opening is expected. In the foregoing examples, two spots were applied to each of two leaves per seedling for soybean plants. […] In soybean, both spots per leaf were at the distal portion of the leaf about 1-2 cm apart. When the method was applied to Arabidopsis, two developmentally intermediate aged leaves were chosen per plant, and one spot infiltration was carried out per leaf.

[1] = test system: Arabidopsis ecotype Col-0 plant; assay: Arabidopsis response to spot infiltrated auxins and conjugates; format: in vivo, Arabidopsis thaliana; settings: result in words
Method: The effect of auxin conjugates was assessed using Arabidoposis (Arabidopsis thialiana) ecotype Col-0 plant. Prior to studies utilizing the auxin conjugates, levels of analytical grade (98%+pure) IAA, 2,4-D and dicamba in solution were applied at various concentrations directly to developmentally similar leaves of 20-23 day old Arabidopsis seedlings by needleless syringe spot infiltration methodology, in order to determine range of auxinic response and severity. Phenotypes were documented relative to control at 1 day post-spot infiltration and subsequently every other day, up to nine days post treatment. Three concentrations were chosen based on reproducibility, and conjugated forms were then studied with 4 or more replicate treatments for each, along with appropriate negative controls (H2O and 10% EtOH).
as §1, §2
Generally, for Arabidopsis, the two leaves were chosen from opposite sides of rosette. In general, the spot infiltration method is carried out on younger plants in order to minimize experimental footprint and to maintain developmental uniformity. However, the method is not limited to use on young plants and can be easily applied to older plants as determined by the goals of a particular experiment.

Soybean seeds = assay: Phytotoxicity evaluation during soybean germination; format: in vivo; settings: 1 μM in germination media, 10 days
Method: To evaluate the effect of synthetic auxin conjugates in plants, 2,4-D-Asp, 2,4-D-Glu, dicamba-Asp, and dicamba-Glu were synthesized (Irvine Chemistry Laboratory, Anaheim, Calif.) and tested for auxin effects during soybean germination.
Asp and Glu conjugates of 2,4-D and dicamba were dissolved in a small quantity of Na2CO3 and ethanol, respectively, diluted in ddH2O to obtain 10 mM stock solution, and filter sterilized. Soybean seeds of a Pioneer elite germplasm were sterilized with chlorine gas as following: a) two layers of seeds were placed in a 100×25 mm plastic Petri dish; b) in an exhaust fume hood, seeds were placed into a glass desiccator with a 250 mL beaker containing 100 mL bleach (5% NaOC1) and 3.5 mL 12N HCl was slowly added to the beaker; c) the lid was sealed closed on the desiccator and the seeds sterilized for at least 24 hr.
Sterilized soybean seeds were then imbibed in ddH2O under sterile conditions at 25° C. for 24 hours before germination test. For germination test, 6-8 imbibed seeds were placed on a 100×25 mm deep Petri dish plate containing 50 ml germination media supplemented with or without auxin herbicide conjugates. 1 L seed germination media contains 3.21 g GAMBORG B-5 basal medium (PhytoTech), 20 g sucrose, 5 g tissue culture agar, and is pH adjusted to 5.7. Media was autoclaved at 121° C. for 25 min and cooled to 60° C. before the addition of auxin conjugates. Germination was carried out in a Percival growth chamber at 25° C. under 18 hr light and 6 hr dark cycle at 90 to 150 μE/m2/s and grown for 10 days.

[2] = 1, 2.5 and 5 mM, all test levels

## O=C(O)Cc1c[nH]c2ccccc12 [IAA, indole-3-acetic acid]
Soybean seedlings; 1.0 mM
  1st trifoliate leaf curl: 0
  Chlorotic lesion @ app. Pnt: 0
Soybean seedlings; 2.5 mM
  1st trifoliate leaf curl: 0
  Chlorotic lesion @ app. Pnt: 0
Soybean seedlings; 5.0 mM
  1st trifoliate leaf curl: 0
  Chlorotic lesion @ app. Pnt: 0
Soybean seedlings; 1, 2.5 and 5 mM
  Plant response phenotype, soybean: modest stem twisting and bending (epinasty)
[1]; 5 mM (high dose), 1-2 days post treatment
  Phenotype, Arabidopsis: modest petiole twisting (epinasty) and leaf curl

## O=C(O)CC[C@H](NC(=O)Cc1c[nH]c2ccccc12)C(=O)O [IAA-Glu]
Soybean seedlings; 1.0 mM
  1st trifoliate leaf curl: 0
  Chlorotic lesion @ app. Pnt: 0
  Epinasty score: 0
Soybean seedlings; 2.5 mM
  1st trifoliate leaf curl: 0
  Chlorotic lesion @ app. Pnt: 0
  Epinasty score: 0
Soybean seedlings; 5.0 mM
  1st trifoliate leaf curl: 0
  Chlorotic lesion @ app. Pnt: 0
  Epinasty score: 0
Soybean seedlings; 1, 2.5 and 5 mM
  Plant response phenotype, soybean: No discernable phenotype
[1]; [2]
  Phenotype, Arabidopsis: No discernable phenotype

## COc1c(Cl)ccc(Cl)c1C(=O)NC(CC(=O)O)C(=O)O (centres unmarked) [dicamba-Asp]
Soybean seedlings; 50 μM
  1st trifoliate leaf curl: 0
  Chlorotic lesion @ app. Pnt: 0
  Epinasty score: 0
Soybean seedlings; 100 μM
  1st trifoliate leaf curl: 0
  Chlorotic lesion @ app. Pnt: 0
  Epinasty score: 0
Soybean seedlings; 250 μM
  1st trifoliate leaf curl: 0
  Chlorotic lesion @ app. Pnt: 0
  Epinasty score: 0
Soybean seedlings; 50, 100 and 250 μM
  Plant response phenotype, soybean: phenotypes similar to that of negative control
[1]; 50, 100 and 250 μM
  Phenotype, Arabidopsis: No obvious phenotype
Soybean seeds
  Soybean seed germination and growth: seed germination and growth were normal

## O=C(O)C[C@H](NC(=O)COc1ccc(Cl)cc1Cl)C(=O)O [2,4-D-Asp]
Soybean seedlings; 100 μM
  1st trifoliate leaf curl: 0
Soybean seedlings; 250 μM
  1st trifoliate leaf curl: 0
Soybean seedlings; 500 μM
  1st trifoliate leaf curl: 0
Soybean seedlings; 100, 250 & 500 μM
  Plant response phenotype, soybean: auxinic response nearly equivalent to that of 2,4-D
Soybean seeds
  Soybean seed germination and growth: seed germination and growth were normal

## COc1c(Cl)ccc(Cl)c1C(=O)NC(CCC(=O)O)C(=O)O (centres unmarked) [dicamba-Glu]
Soybean seedlings; 50 μM
  1st trifoliate leaf curl: 0
  Chlorotic lesion @ app. Pnt: 0
  Epinasty score: 0
Soybean seedlings; 100 μM
  1st trifoliate leaf curl: 0
  Chlorotic lesion @ app. Pnt: 0
  Epinasty score: 0
Soybean seedlings; 250 μM
  1st trifoliate leaf curl: 0
  Chlorotic lesion @ app. Pnt: 0
  Epinasty score: 0
Soybean seedlings; 50, 100 and 250 μM
  Plant response phenotype, soybean: phenotypes similar to that of negative control
[1]; 100 and 250 μM, compared to dicamba alone
  Phenotype, Arabidopsis: modest epinasty
Soybean seeds
  Soybean seed germination and growth: seed germination and growth were normal

## O=C(O)C[C@H](NC(=O)Cc1c[nH]c2ccccc12)C(=O)O [IAA-Asp]
Soybean seedlings; 1.0 mM
  1st trifoliate leaf curl: 0
  Chlorotic lesion @ app. Pnt: 0
  Epinasty score: 0
Soybean seedlings; 2.5 mM
  1st trifoliate leaf curl: 0
  Chlorotic lesion @ app. Pnt: 0
  Epinasty score: 0
Soybean seedlings; 5.0 mM
  1st trifoliate leaf curl: 0
  Chlorotic lesion @ app. Pnt: 0
  Epinasty score: 0
Soybean seedlings; 1, 2.5 and 5 mM
  Plant response phenotype, soybean: No discernable phenotype
[1]; [2]
  Phenotype, Arabidopsis: No discernable phenotype

## O=C(O)CC[C@H](NC(=O)COc1ccc(Cl)cc1Cl)C(=O)O [2,4-D-Glu]
Soybean seedlings; 100 μM
  1st trifoliate leaf curl: 0
  Epinasty score: +/−
Soybean seedlings; 250 μM
  1st trifoliate leaf curl: 0
  Epinasty score: +/−
Soybean seedlings; 500 μM
  1st trifoliate leaf curl: 0
  Plant response phenotype, soybean: modest epinasty
Soybean seedlings; 100, 250 & 500 μM
  Plant response phenotype, soybean: distinctly lower level of severity
Soybean seedlings; lower concentration than 500 μM
  Plant response phenotype, soybean: no discernible auxinic responses
Soybean seeds
  Soybean seed germination and growth: seed germination and growth were normal

## COc1c(Cl)ccc(Cl)c1C(=O)O [dicamba, 3,6-dichloro-2-methoxybenzoic acid free acid]
Soybean seedlings; 50 μM
  Chlorotic lesion @ app. Pnt: 0
Soybean seedlings; 100 μM
  Chlorotic lesion @ app. Pnt: 0
Soybean seedlings; 250 μM
  Chlorotic lesion @ app. Pnt: 0
Soybean seedlings; 50, 100 and 250 μM
  Plant response phenotype, soybean: epinasty at day 1 and leaf curling of 1st tri-foliate
[1]; 50, 100 and 250 μM
  Phenotype, Arabidopsis: petiole epinasty and leaf curling at day one
Soybean seeds
  Soybean seed germination and growth: seed germination was arrested
